One data set relates to red blood cells (RBCs). The format is cell-based, human. The protocol: RBC hemolysis assay: To assess the hemolytic activity of a structurally-stabilized peptide described herein, a red blood cell (RBV) hemolysis assay can be used. Human blood samples are centrifuged to isolate RBCs, which are then washed and suspended in phosphate-buffered saline to yield a 1% (v/v) suspension. The suspension is added to serial dilutions of peptide stocks in water in clear round-bottom polypropylene 96-well plates and the plates incubated for 1 hour at 37° C. The plates are then centrifuged and the supernatant isolated to determine the amount of hemoglobin released using a spectrophotometer (570 nm). Percent hemolysis is calculated as: ([Treated Absorbance−Untreated Control Absorbance]×100)/(1% Triton X-100 Treated Absorbance−Untreated Control Absorbance).
Stapled oncolytic peptide synthesis: Fmoc-based solid-phase peptide synthesis was used to synthesize stapled antimicrobial peptides in accordance with previously reported methods for generating all-hydrocarbon stapled peptides. To achieve the various staple lengths, α-methyl, α-alkenyl amino acids were installed at i, i+4 positions using two S-pentenyl alanine residues (S5). For the stapling reaction, Grubbs 1st generation ruthenium catalyst dissolved in dichloroethane was added to the resin-bound peptides. To ensure maximal conversion, three to five rounds of stapling were performed. The peptides were then cleaved off of the resin using trifluoroacetic acid, precipitated using a hexane:ether (1:1) mixture, air dried, and purified by LC-MS. All peptides were quantified by amino acid analysis. RBC hemolysis assay: Human blood samples were centrifuged to isolate red blood cells (RBCs), which were then washed and suspended in phosphate-buffered saline to yield a 1% (v/v) suspension. The suspension was added to serial dilutions of peptide stocks in water in clear round-bottom polypropylene 96-well plates and the plates incubated for 1 hour at 37° C. The plates were then centrifuged and the supernatant isolated to determine the amount of hemoglobin released using a spectrophotometer (570 nm). Percent hemolysis was calculated as: ([Treated Absorbance−Untreated Control Absorbance]×100)/(1% Triton X-100 Treated Absorbance−Untreated Control Absorbance).

A further data set deals with OCI-AML3 cells. Briefly: LDH release assay of OCI-AML3 cells. It is filed as cell-based, human. The settings on record: 90 minutes; for cancer cell lysis by LDH release, compared with parent Mag(i+4)15: 10 and 25 μg/mL, FIG. 6, FIG. 7; for susceptibility of OCI-AML3 cells to iStOPs (LDH release): FIG. 19. The procedure:
(§1) LDH release assay: To assess the release of lactate dehydrogenase (LDH) upon treatment with a structurally-stabilized peptide described herein, an LDH release assay can be used. Cultured cells, including, e.g., cancer cells and HUVEC cells, are plated in 96-well format (2×10^4 cells per well; including overnight incubation for adherent cells) and then treated with serial dilutions of structurally-stabilized peptides in a final volume in a final volume of 100 μL and incubated at 37° C. for the indicated time period (e.g., 90 minutes). The plates are spun down at 1500 rpm for 5 minutes at 4° C., and 80 μL of cell culture media is transferred to a clear plate (Corning), incubated with 80 μL of LDH reagent (Roche) for 15 minutes while shaking, and absorbance is measured at 490 nm on a microplate reader (SpectraMax M5 Microplate Reader, Molecular Devices). LDH release assays, as tailored to specific cancer cell types (OCI-AML3 cells and primary human pediatric B-ALL cells), are exemplified below.
LDH release assay of OCI-AML3 cells: OCI-AML3 cells are seeded in 96-well plates (2×10^4 cells per well) in RPMI medium containing 5% FBS and treated with structurally-stabilized peptides for 90 minutes. LDH release is quantified by incubating centrifuged (e.g., at 1500 rpm) cell culture medium 1:1 with LDH reagent (Roche), followed by absorbance measurement 490 nm on a microplate reader (Spectramax M5). Percent LDH release was normalized to 1% Triton.
(§2) LDH release assay: Cultured cells, including cancer cells and HUVEC cells, were plated in 96-well format (2×10^4 cells per well; including overnight incubation for adherent cells) and then treated with serial dilutions of Mag(i+4) peptides in a final volume in a final volume of […] and incubated at 37° C. for the indicated time period. The plates were spun down at 1500 rpm for 5 min at 4° C., and 80 μL of cell culture media was transferred to a clear plate (Corning), incubated with 80 μL of LDH reagent (Roche) for 15 min while shaking, and absorbance measured at 490 nm on a microplate reader (SpectraMax M5 Microplate Reader, Molecular Devices). LDH release assays, as tailored to specific cancer cell types, are exemplified below.
LDH release assay of OCI-AML3 cells: OCI-AML3 cells were seeded in 96-well plates (2×10^4 cells per well) in RPMI medium containing 5% FBS and treated with peptides having the indicated amino acid sequences for 90 minutes. LDH release was quantified by incubating centrifuged cell culture medium 1:1 with LDH reagent (Roche), followed by absorbance measurement 490 nm on a microplate reader (Spectramax M5). Percent LDH release was normalized to 1% Triton. Data was pooled from 2 technical replicates.
A general note: Release of lactate dehydrogenase indicates damage to the cell membrane.

The next data set deals with U937 cells. Description: LDH release assay of U937 cells. The format is cell-based. Conditions: 10 and 25 μg/mL, 90 minutes, FIG. 6, FIG. 7. The procedure:
as §1, §2

Bridge positions count the residues as written; N and C are the ends. Square brackets hold non-standard residues; d marks the D form. Ends that are not written are not given here. Peptide text beside a SMILES is read from it. S5 = C=CCCC[C@](C)(N)C(=O)O; Nle = CCCC[C@H](N)C(=O)O

For the compound `CCCC[C@H](NC(=O)[C@@H](NC(=O)[C@H](CCC(=O)O)NC(=O)CNC(=O)[C@@H](NC(=O)[C@H](Cc1ccccc1)NC(=O)[C@H](C)NC(=O)[C@H](CCCCN)NC(=O)CNC(=O)[C@H](Cc1ccccc1)NC(=O)[C@H](CCCCN)NC(=O)[C@H](CCCCN)NC(=O)[C@H](C)NC(=O)[C@H](CO)NC(=O)[C@H](Cc1c[nH]cn1)NC(=O)[C@H](CC(C)C)NC(=O)[C@]1(C)CCCC=CCCC[C@](C)(N)C(=O)N[C@@H]([C@@H](C)CC)C(=O)NCC(=O)N[C@@H](CCCCN)C(=O)N1)C(C)C)[C@@H](C)CC)C(=O)N[C@@H](CC(N)=O)C(=O)N[C@@H](CO)C(N)=O` [Mag(i+4)0, X1IGKX2LHSAKKFGKAFVGEIBNS] (H-[S5]IGK[S5]LHSAKKFGKAFVGEI[Nle]NS-NH2; staple 1-5), the RBC lysis entry in the data set on red blood cells (RBCs) is recorded as “little to no effect on RBCs”.

For “GIEKFLHSAKKFGKAX1VGEX2BNS (GIEKFLHSAKKFGKA[S5]VGE[S5][Nle]NS; staple 16-20) [Mag(i+4)15 (G3E)]”, the “cancer cell lysis by LDH release, compared with parent Mag(i+4)15” value in the data set on OCI-AML3 cells and with U937 cells was “retained potent membrane lysis” each time.

For “GIGKFLESAKKFGKAX1VGEX2BNS (GIGKFLESAKKFGKA[S5]VGE[S5][Nle]NS; staple 16-20) [Mag(i+4)15 (H7E)]”, in the data set on OCI-AML3 cells, the “cancer cell lysis by LDH release, compared with parent Mag(i+4)15” value is on record as “retained potent membrane lysis”; the “susceptibility of OCI-AML3 cells to iStOPs (LDH release)” value (from here on “susceptibility of OCI-AML3 cells”) is “especially potent and selective activity”. Moreover, the “cancer cell lysis by LDH release, compared with parent Mag(i+4)15” value in the data set on U937 cells is recorded as “retained potent membrane lysis”.

Take “GIGKFLHEAKKFGKAX1VGEX2BNS (GIGKFLHEAKKFGKA[S5]VGE[S5][Nle]NS; staple 16-20) [Mag(i+4)15 (S8E)]”: the “cancer cell lysis by LDH release, compared with parent Mag(i+4)15” value in the data set on OCI-AML3 cells and in the data set on U937 cells was “retained potent membrane lysis” each time.

Regarding “GIGKFLHKAKKFGKAX1VGEX2BNS (GIGKFLHKAKKFGKA[S5]VGE[S5][Nle]NS; staple 16-20) [Mag(i+4)15 (S8K)]”, the “cancer cell lysis by LDH release, compared with parent Mag(i+4)15” value in the data set on OCI-AML3 cells is given as “retain substantial, if not all, oncolytic activity”; in the data set with U937 cells, “retain substantial, if not all, oncolytic activity”.

As for “GIGKFLHSAKKFGKAX1VEEX2BNS (GIGKFLHSAKKFGKA[S5]VEE[S5][Nle]NS; staple 16-20) [Mag(i+4)15 (G18E)]”, the “cancer cell lysis by LDH release, compared with parent Mag(i+4)15” value in the data set with OCI-AML3 cells and in the data set on U937 cells was “retained potent membrane lysis” each time. Also, the “susceptibility of OCI-AML3 cells” value in the data set with OCI-AML3 cells was “especially potent and selective activity”.

In the case of “GIGKFLHSAKKFGKAX1VGEX2BES (GIGKFLHSAKKFGKA[S5]VGE[S5][Nle]ES; staple 16-20) [Mag(i+4)15 (N22E)]”, in the data set with OCI-AML3 cells, the “cancer cell lysis by LDH release, compared with parent Mag(i+4)15” value was “retained potent membrane lysis”; the “susceptibility of OCI-AML3 cells” value was “especially potent and selective activity”. Further, the “cancer cell lysis by LDH release, compared with parent Mag(i+4)15” value with U937 cells is on record as “retained potent membrane lysis”.

Take “GIGKFLHSAKKFGKAX1VGEX2BKS (GIGKFLHSAKKFGKA[S5]VGE[S5][Nle]KS; staple 16-20) [Mag(i+4)15 (N22K)]”: the “cancer cell lysis by LDH release, compared with parent Mag(i+4)15” value is on record as “retain substantial, if not all, oncolytic activity” in the data set with OCI-AML3 cells and “retain substantial, if not all, oncolytic activity” in the data set on U937 cells.

For “GIGKFLHSAKKFGKAX1VGEX2BNE (GIGKFLHSAKKFGKA[S5]VGE[S5][Nle]NE; staple 16-20) [Mag(i+4)15 (S23E)]”, in the data set on OCI-AML3 cells, the “cancer cell lysis by LDH release, compared with parent Mag(i+4)15” value is recorded as “retained substantial or all cancer cell killing activity”; the “susceptibility of OCI-AML3 cells” value is “especially potent and selective activity”. In the data set with U937 cells, the “cancer cell lysis by LDH release, compared with parent Mag(i+4)15” value is “retained substantial or all cancer cell killing activity”.

In the case of “GIGKFLHSAKKFGKAX1VGEX2KNS (GIGKFLHSAKKFGKA[S5]VGE[S5]KNS; staple 16-20) [Mag(i+4)15 (M21K)]”, the “cancer cell lysis by LDH release, compared with parent Mag(i+4)15” value is “retain substantial, if not all, oncolytic activity” in the data set on OCI-AML3 cells and “retain substantial, if not all, oncolytic activity” with U937 cells.

Turning to “GIGKFLHSAKKFGKAX1VGKX2BNS (GIGKFLHSAKKFGKA[S5]VGK[S5][Nle]NS; staple 16-20) [Mag(i+4)15 (E19K)]”, the “cancer cell lysis by LDH release, compared with parent Mag(i+4)15” value in the data set on OCI-AML3 cells is on record as “retain substantial, if not all, oncolytic activity”; in the data set on U937 cells it was “retain substantial, if not all, oncolytic activity”.

As for “GIGKFLHSAKKFGKAX1VKEX2BNS (GIGKFLHSAKKFGKA[S5]VKE[S5][Nle]NS; staple 16-20) [Mag(i+4)15 (G18K)]”, the “cancer cell lysis by LDH release, compared with parent Mag(i+4)15” value in the data set with OCI-AML3 cells was “retain substantial, if not all, oncolytic activity”; in the data set with U937 cells it was “retain substantial, if not all, oncolytic activity”.

On to “GIGKFLHSAKKFGKEX1VGEX2BNS (GIGKFLHSAKKFGKE[S5]VGE[S5][Nle]NS; staple 16-20) [Mag(i+4)15 (A15E)]”, for which the “cancer cell lysis by LDH release, compared with parent Mag(i+4)15” value in the data set with OCI-AML3 cells and in the data set with U937 cells was “retained substantial or all cancer cell killing activity” throughout. Moreover, in the data set on OCI-AML3 cells, the “susceptibility of OCI-AML3 cells” value is “especially potent and selective activity”.

For “GIGKFLHSAKKFGKKX1VGEX2BNS (GIGKFLHSAKKFGKK[S5]VGE[S5][Nle]NS; staple 16-20) [Mag(i+4)15 (A15K)]”, the “cancer cell lysis by LDH release, compared with parent Mag(i+4)15” value in the data set with OCI-AML3 cells is “retain substantial, if not all, oncolytic activity”; in the data set on U937 cells, “retain substantial, if not all, oncolytic activity”.

In the case of “GIGKFLKSAKKFGKAX1VGEX2BNS (GIGKFLKSAKKFGKA[S5]VGE[S5][Nle]NS; staple 16-20) [Mag(i+4)15 (H7K)]”, the “cancer cell lysis by LDH release, compared with parent Mag(i+4)15” value with OCI-AML3 cells was “retain substantial, if not all, oncolytic activity”; in the data set with U937 cells, “retain substantial, if not all, oncolytic activity”.

Consider “GIKKFLHSAKKFGKAX1VGEX2BNS (GIKKFLHSAKKFGKA[S5]VGE[S5][Nle]NS; staple 16-20) [Mag(i+4)15 (G3K)]”, for which the “cancer cell lysis by LDH release, compared with parent Mag(i+4)15” value is “retain substantial, if not all, oncolytic activity” with OCI-AML3 cells and “retain substantial, if not all, oncolytic activity” in the data set on U937 cells.

Turning to “iStOP 11: integrated StOP of Magainin II combining staples and point mutation(s); sequence only in FIG. 17B ([S5]IGK[S5]LHSKKKFGKA[S5]VGE[S5][Nle]NS; staple 1-5, 16-20)”, the “susceptibility of OCI-AML3 cells” value in the data set with OCI-AML3 cells is “especially potent and selective activity”.

For the origin of these results see patent US20230116760A1, “STRUCTURALLY-STABILIZED ONCOLYTIC PEPTIDES AND USES THEREOF” (Dana-Farber Cancer Institute, Inc., priority 2019, published 2023).
